Assay results as given in paper PMC4718804 (eLife, 2015).
Read-outs that look alike come from different tables or passages of the source.

Assays:
[1] = target: wild-type human NPC1 (Homo sapiens, UniProt O15118); format: binding
[2] = tested on: NTD of recombinant NPC1; conditions: cited from earlier work
[3] = tested on: lysosomal degradation of 125I-LDL in CHO-7 cells; format: cell-based, hamster
[4] = physchem
[5] = tested on: Ebola virus; conditions: cited from earlier work
[6] = tested on: ER membranes; format: biochemical
[7] = tested on: cholesterol esterification stimulated by 25-hydroxycholesterol; format: cell-based
[8] = tested on: transfer of LDL-derived cholesterol from lysosomes to ER in CHO-7 cells; format: cell-based, hamster
[9] = tested on: TR-4139 cells (CHO-7 cells stably expressing excess human NPC1); format: cell-based, hamster
[10] = tested on: Ebola virus; format: cell-based
[11] = tested on: cholesterol egress from lysosomes; conditions: cited from earlier work
[12] = tested on: SREBP-2 cleavage in CHO-7 cells; format: cell-based, hamster
[13] = target: NPC1 (Cricetulus griseus, UniProt Q9JLG3); format: binding, hamster
Sequence of NPC1 (Q9JLG3 23-1277 limits assumed): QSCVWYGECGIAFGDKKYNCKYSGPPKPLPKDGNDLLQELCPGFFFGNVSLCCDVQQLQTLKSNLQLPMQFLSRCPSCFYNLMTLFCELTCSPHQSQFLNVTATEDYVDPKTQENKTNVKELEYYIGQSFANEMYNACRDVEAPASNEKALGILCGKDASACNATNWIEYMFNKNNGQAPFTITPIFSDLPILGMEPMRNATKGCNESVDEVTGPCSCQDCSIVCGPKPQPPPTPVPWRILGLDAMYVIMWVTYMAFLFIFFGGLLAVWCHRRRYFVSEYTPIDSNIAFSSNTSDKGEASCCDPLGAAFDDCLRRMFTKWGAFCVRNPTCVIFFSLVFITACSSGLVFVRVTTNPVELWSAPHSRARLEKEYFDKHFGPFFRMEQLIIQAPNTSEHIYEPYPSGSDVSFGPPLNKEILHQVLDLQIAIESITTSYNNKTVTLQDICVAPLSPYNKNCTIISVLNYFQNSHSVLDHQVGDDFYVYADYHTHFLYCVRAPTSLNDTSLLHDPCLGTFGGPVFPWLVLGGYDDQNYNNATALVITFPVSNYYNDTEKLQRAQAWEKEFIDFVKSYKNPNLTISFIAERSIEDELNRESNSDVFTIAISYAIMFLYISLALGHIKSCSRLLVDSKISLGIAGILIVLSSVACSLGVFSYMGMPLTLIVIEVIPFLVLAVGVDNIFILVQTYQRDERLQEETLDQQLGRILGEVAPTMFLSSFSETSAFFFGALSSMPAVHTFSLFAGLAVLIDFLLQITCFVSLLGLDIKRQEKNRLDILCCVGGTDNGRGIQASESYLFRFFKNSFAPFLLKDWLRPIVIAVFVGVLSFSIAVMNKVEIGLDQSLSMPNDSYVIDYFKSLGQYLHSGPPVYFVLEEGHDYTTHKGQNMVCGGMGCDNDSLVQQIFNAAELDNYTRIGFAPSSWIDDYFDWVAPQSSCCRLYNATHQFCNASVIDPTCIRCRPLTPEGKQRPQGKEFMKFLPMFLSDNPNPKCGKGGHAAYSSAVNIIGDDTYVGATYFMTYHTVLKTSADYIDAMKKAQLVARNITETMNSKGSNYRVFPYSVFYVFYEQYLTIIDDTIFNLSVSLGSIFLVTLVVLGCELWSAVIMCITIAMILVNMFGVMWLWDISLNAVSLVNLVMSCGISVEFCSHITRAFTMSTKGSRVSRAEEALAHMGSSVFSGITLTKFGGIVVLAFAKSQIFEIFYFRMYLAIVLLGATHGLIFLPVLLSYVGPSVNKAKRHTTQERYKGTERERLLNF

[14] = target: purified NPC1 (Homo sapiens, UniProt O15118); format: binding
Sequence of purified NPC1 (O15118 23-1278): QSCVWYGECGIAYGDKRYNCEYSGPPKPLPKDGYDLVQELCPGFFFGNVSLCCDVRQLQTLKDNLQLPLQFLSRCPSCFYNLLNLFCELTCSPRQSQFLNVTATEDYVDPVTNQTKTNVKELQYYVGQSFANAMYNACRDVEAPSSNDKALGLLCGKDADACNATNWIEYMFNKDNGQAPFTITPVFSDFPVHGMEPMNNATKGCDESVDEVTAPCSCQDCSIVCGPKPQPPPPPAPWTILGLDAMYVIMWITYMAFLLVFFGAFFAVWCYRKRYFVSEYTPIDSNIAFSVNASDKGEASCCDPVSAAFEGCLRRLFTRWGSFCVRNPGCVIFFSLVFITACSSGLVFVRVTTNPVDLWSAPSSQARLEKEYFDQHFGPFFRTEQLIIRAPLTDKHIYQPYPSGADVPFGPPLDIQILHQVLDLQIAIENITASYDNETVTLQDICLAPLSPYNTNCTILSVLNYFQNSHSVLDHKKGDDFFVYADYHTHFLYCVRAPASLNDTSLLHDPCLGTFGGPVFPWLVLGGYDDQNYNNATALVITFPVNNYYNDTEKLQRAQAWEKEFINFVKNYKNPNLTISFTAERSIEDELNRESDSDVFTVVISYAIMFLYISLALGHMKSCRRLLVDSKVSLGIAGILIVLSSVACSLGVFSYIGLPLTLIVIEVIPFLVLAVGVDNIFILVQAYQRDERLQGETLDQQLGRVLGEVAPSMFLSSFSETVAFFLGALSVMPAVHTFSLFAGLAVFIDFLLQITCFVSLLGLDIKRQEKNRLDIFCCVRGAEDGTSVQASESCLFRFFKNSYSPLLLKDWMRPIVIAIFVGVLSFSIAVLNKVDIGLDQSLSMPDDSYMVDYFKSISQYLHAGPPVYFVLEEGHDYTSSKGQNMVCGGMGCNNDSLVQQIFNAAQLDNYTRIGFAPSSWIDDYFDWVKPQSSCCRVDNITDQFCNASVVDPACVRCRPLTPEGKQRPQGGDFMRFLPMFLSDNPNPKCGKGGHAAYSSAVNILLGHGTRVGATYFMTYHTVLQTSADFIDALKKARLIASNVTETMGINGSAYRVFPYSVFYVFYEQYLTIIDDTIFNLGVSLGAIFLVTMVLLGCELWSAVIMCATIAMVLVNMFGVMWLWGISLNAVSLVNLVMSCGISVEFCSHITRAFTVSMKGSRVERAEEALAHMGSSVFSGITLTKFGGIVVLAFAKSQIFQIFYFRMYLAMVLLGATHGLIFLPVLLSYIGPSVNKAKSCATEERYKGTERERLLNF

[15] = target: NPC1L1 (Homo sapiens, UniProt Q9UHC9); format: binding
Sequence of NPC1L1 (Q9UHC9 22-1359): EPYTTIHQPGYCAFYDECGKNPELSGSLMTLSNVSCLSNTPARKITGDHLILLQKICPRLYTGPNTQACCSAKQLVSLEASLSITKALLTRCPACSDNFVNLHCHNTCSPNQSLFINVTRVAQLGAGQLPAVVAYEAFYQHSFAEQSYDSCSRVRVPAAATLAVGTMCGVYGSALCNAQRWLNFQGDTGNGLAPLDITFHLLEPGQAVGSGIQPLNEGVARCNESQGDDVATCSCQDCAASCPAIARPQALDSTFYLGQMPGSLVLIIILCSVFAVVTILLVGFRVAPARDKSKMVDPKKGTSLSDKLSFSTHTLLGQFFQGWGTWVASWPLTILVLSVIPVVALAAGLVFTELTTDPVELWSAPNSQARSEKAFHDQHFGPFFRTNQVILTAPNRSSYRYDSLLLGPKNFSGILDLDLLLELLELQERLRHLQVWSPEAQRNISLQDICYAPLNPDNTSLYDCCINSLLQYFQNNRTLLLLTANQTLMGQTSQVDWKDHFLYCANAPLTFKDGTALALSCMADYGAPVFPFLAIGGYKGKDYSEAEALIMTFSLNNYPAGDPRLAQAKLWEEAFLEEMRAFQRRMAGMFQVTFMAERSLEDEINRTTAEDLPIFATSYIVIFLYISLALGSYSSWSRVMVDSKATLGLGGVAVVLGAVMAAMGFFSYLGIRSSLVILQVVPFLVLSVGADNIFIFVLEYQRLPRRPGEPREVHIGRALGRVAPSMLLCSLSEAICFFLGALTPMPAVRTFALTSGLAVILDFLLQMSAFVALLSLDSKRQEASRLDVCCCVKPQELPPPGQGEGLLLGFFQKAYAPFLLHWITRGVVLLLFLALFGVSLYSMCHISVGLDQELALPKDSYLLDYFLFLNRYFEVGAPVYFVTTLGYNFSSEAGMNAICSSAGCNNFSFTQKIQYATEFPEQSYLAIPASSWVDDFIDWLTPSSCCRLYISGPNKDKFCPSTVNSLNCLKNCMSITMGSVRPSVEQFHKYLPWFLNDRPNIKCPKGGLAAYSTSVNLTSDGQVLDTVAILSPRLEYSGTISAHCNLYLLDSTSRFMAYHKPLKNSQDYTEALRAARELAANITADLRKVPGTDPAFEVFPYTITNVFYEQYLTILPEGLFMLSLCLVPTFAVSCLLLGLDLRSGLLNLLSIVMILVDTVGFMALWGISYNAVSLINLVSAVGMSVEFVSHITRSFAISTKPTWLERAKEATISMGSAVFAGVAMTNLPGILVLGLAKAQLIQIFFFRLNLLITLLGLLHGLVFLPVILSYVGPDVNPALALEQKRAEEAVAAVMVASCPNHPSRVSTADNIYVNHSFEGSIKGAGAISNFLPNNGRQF

[16] = read-out: Inhibitory constant (Ki): concentration inhibiting incorporation of [14C]oleate into cholesteryl [14C]oleate by 50%
[17] = read-out: Ki for inhibition of esterification of LDL-derived cholesterol

Sequence of wild-type human NPC1 (O15118 23-1278): as the sequence (O15118 23-1278) above

SMILES: CCN(CC)CCOC1CCC2(C)C(=CCC3C4CCC(=O)C4(C)CCC32)C1 (stereo not drawn) [U18666A, 3-beta-[2-(diethylamino)ethoxy]androst-5-en-17-one, reference compound]
- competition of U-X crosslinking to transfected wild-type NPC1 [1]: competed
- effect on binding of [3H]25-hydroxycholesterol to the NTD of recombinant NPC1 [2]: does not block binding
- effect on degradation of 125I-LDL (125I-monoiodotyrosine released into medium) [3]: did not inhibit degradation
- pKa [4]: 9.41
- concentrations of U18666A required to inhibit Ebola virus infection [5]: 3 to 12 µM
- effect on cholesteryl [14C]oleate formation when cholesterol is added to ER membranes in vitro [6]: does not inhibit
- effect on cholesterol esterification stimulated by 25-hydroxycholesterol [7]: did not block
- concentration at which transport of LDL-derived cholesterol from lysosomes to ER is inhibited (as low as) [8]: 0.03 µM
- effect on lysosomal exit of cholesterol (incorporation of [14C]oleate into cholesteryl [14C]oleate) [8]: inhibited the lysosomal exit of cholesterol
- Ki [8, 16]: 30 nM
- Ki [8, 17]: 20 nM
- rise of the threshold for U18666A inhibition by overexpression of NPC1 [9]: more than 100 fold
- Ki [9, 17]: 2700 nM
- fold higher concentration required for inhibition of Ebola than for inhibition of cholesterol export [10]: 100 fold
- fold more potent than imipramine [11]: more than 100 fold
- effect on the FCS-induced reduction of nuclear SREBP-2 [12]: prevented this reduction
- competition of U-X crosslinking to NPC1, immunoprecipitation [13]: blocked
- competition of U-X crosslinking to the 190-kDa protein (NPC1), in-gel fluorescence [13]: disappeared

SMILES: C#CCOc1ccc(C(=O)c2ccc(C(=O)OCCN(CC)CCOC3CCC4(C)C(=CCC5C6CCC(=O)C6(C)CCC54)C3)cc2)cc1 (stereo not drawn) [U-X]
- fluorescent NPC1 after UV crosslinking of U-X [1]: detected
- crosslinking to purified NPC1 [14]: unable to crosslink
- effect on degradation of 125I-LDL (125I-monoiodotyrosine released into medium) [3]: did not inhibit degradation
- effect on lysosomal exit of cholesterol (incorporation of [14C]oleate into cholesteryl [14C]oleate) [8]: inhibited the lysosomal exit of cholesterol
- Ki [8, 16]: 60 nM
- crosslinking to NPC1L1 [15]: did not crosslink
- effect on the FCS-induced reduction of nuclear SREBP-2 [12]: blocked
- crosslinking to NPC1 [13]: crosslinks

SMILES: CCN(CC)CCCC(C)Nc1ccnc2cc(Cl)ccc12 (stereo not drawn) [chloroquine, reference compound]
- effect on degradation of 125I-LDL (125I-monoiodotyrosine released into medium) [3]: blocked the degradation
- effect on release of LDL-derived cholesterol (cholesterol esterification) [8]: blocked

SMILES: CCC(CC)CCOC1CCC2(C)C(=CCC3C2CCC2(C)C3CCC2N(C)C)C1 (stereo not drawn) [compound A]
- pKa [4]: 10.2
- fold less active than U18666A in the cholesterol esterification assay [8]: ~100 fold
- Ki [8, 16]: 4500 nM
- effect on the FCS-induced reduction of nuclear SREBP-2 [12]: no activity
- competition of U-X crosslinking to NPC1, immunoprecipitation [13]: not inhibited
- competition of U-X crosslinking to the 190-kDa protein (NPC1), in-gel fluorescence [13]: not

SMILES: CCCN(CCOC1CCC2(C)C(=CCC3C4CCC(=O)C4(C)CCC32)C1)Cc1cn(-c2cccnc2)nn1 (stereo not drawn) [compound B]
- Ki [8, 16]: 10 nM
- competition of U-X crosslinking to NPC1, immunoprecipitation [13]: blocked

SMILES: CCCN(CCOC1CCC2(C)C(=CCC3C4CCC(=O)C4(C)CCC32)C1)Cc1cn(CCCCCCOC(=O)CCCCC2SCC3NC(=O)NC32)nn1 (stereo not drawn) [compound C]
- Ki [8, 16]: 20 nM
- competition of U-X crosslinking to NPC1, immunoprecipitation [13]: blocked

SMILES: CCC(CC)CCOC1CCC2(C)C(=CCC3C4CCC(=O)C4(C)CCC32)C1 (stereo not drawn) [compound D]
- Ki [8, 16]: 4700 nM
- competition of U-X crosslinking to NPC1, immunoprecipitation [13]: not inhibited

SMILES: CCN(CC)CCOC1CCCCC1 [compound E]
- Ki [8, 16]: > 10000 nM
- competition of U-X crosslinking to NPC1, immunoprecipitation [13]: not inhibited
